15 compounds from patent US12324809B2, “Fluoro beta-carboline compounds” (OSSIFI THERAPEUTICS LLC, priority 2018, dated 2025) can be followed below.

Data set [1] deals with T1, sclerostin (Homo sapiens, UniProt Q9BQB4).
T1 construct: host or cells: human embryonic cells (the assay cells)
T1 sequence (Q9BQB4 24-213): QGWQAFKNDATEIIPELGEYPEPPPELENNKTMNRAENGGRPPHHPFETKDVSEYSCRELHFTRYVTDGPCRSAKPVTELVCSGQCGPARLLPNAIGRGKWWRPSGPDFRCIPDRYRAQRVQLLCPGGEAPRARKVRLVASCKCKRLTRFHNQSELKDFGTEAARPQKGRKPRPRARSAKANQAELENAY
The experiment in a line: Modulation of sclerostin/Wnt activity: restoring Wnt3a signaling in the presence of sclerostin. It counts as cell-based. Set-up: key to Sclerostin Inhibition Assay; improvement over sclerostin alone: − indicates no improvement over sclerostin protein alone; + indicates an IC100 >10 μM; ++ indicates an IC100 <10 μM. Particulars: for Sclerostin Inhibition Assay; improvement over sclerostin alone: IC100 class, Wnt3a signaling in human embryonic cells in presence of sclerostin. On the procedure: Compounds synthesized in accordance with the methods of Examples 1-14 were assayed for their ability to restore Wnt signaling in the presence of sclerostin consistent with a known sclerostin antagonist, sclerostin Mab. See, Ellies et al., J Bone Miner Res 21:1738-1749 (2006). […] The addition of a known sclerostin antagonist inhibited sclerostin inhibition of Wnt3a signaling, thus restoring Wnt3a signaling in the cell (IC100 at 10 μM) (data not shown).

Data set [2] concerns MC3T3-E1 (mouse calvarial) osteoblast cells. The experiment in a line: Bone formation assay: rescue of sclerostin inhibition of mineralization (calcium concentration). The arrangement: key to Sclerostin Inhibition of Mineralization; improvement over sclerostin alone: − indicates no improvement over sclerostin protein alone; + indicates an IC100 >10 μM; ++ indicates an IC100 <10 μM. The class given is cell-based. Particulars: for Sclerostin Inhibition of Mineralization; improvement over sclerostin alone: IC100 class; for IC100: Mus musculus, MC3T3-E1, IC100 class, read-out: Sclerostin Inhibition of Mineralization, improvement over sclerostin alone. How it is done: Mineralization (crystalline calcium phosphate formation) represents an in vitro model of bone formation. Using an assay in which the amount of mineralization is quantified by measuring total calcium after solubilization of deposited crystalline calcium phosphate, sclerostin was previously shown to inhibit mineralization in MC3T3-E1 (mouse calvarial) osteoblast cells. Li et al., J Bone Miner Res 24:578-588 (2008). Following the protocol described in Li et al., Compounds were assayed for their ability to rescue the inhibition of mineralization by sclerostin in MC3T3 osteoblast cells. […] Addition of a compound of Examples 1-14 neutralized sclerostin-mediated inhibition of mineralization, as reflected by the increase in calcium concentration.

Data set [3] is described as follows: Metabolic stability in pooled human liver microsomes. The class given is in vitro ADME. Particulars: 0.1 μM compound, human liver microsomes 0.1 mg/mL, NADPH, 37 °C, 60 minutes. How it is done:
Compounds of the present invention (0.1 μM) were incubated with microsomes at 37 °C for a total of 60 minutes. The reaction contained pooled human liver microsomal protein (0.1 mg/mL) in potassium phosphate buffer with NADPH. At the indicated time points (0, 5, 15, 30 and 60 minutes). Samples were analyzed by LC/MS/MS and remaining parent drug was calculated using Microsoft Excel (2007). Obach R S, Drug Metab Dispos. 27(11):1350-1359 (1999).
On the technique in general: Liver microsomes are a subcellular fraction often used to study metabolism.

Bounds are passed on as bounds.

Consider “Sclerostin protein: protein that antagonizes Wnt3a signaling and inhibits mineralization; the assay's inhibitor and baseline”, for which the “Sclerostin Inhibition Assay; improvement over sclerostin alone” value in data set [1] was “−”. Also, the “Effect of sclerostin on Wnt3a signaling (in words)” value in data set [1] (human embryonic cells) is reported as “antagonized Wnt3a signaling”. Also, in data set [2], the “Effect of sclerostin treatment alone on mineralization (in words)” value is listed as “significant decrease in mineralization” and the “Sclerostin Inhibition of Mineralization; improvement over sclerostin alone” value is “−”.
As to `COc1cc2c(cc1F)c1ccnc(C(F)(F)F)c1n2CCN1CC(OC)C(OC)C1.Cl` (stereo not shown) [Example 9, 9-(2-(3,4-Dimethoxypyrrolidin-1-yl)ethyl)-6-fluoro-7-methoxy-1-(trifluoromethyl)-9H-pyrido[3,4-b]indole Hydrochloride Salt], the “Metabolic Stability” value in data set [3] is on record as “+ (+ indicates a stability of <1x)”. Moreover, in data set [1], the “Sclerostin Inhibition Assay; improvement over sclerostin alone” value is “++ (++ indicates an IC100 <10 μM)”. Also, the IC100 in data set [2] was < 10 µM.
Turning to `COc1cc2c(cc1F)c1ccnc(C(F)(F)F)c1n2CCN1CCN(C)C(=O)C1.Cl` [Example 4, 4-(2-(6-Fluoro-7-methoxy-1-(trifluoromethyl)-9H-pyrido[3,4-b]indol-9-yl)ethyl)-1-methylpiperazin-2-one Hydrochloride Salt], the “Metabolic Stability” value in data set [3] is given as “++ (++ indicates a stability >1x)”. In addition, the “Sclerostin Inhibition Assay; improvement over sclerostin alone” value in data set [1] is “+ (+ indicates an IC100 >10 μM)”. Also, the IC100 in data set [2] was > 10 µM.
The matching figures for `COc1cc2c(cc1F)c1ccnc(C(F)(F)F)c1n2CCN1CC2CCC(C1)O2.Cl` [Example 6, 3-(2-(6-Fluoro-7-methoxy-1-(trifluoromethyl)-9H-pyrido[3,4-b]indol-9-yl)ethyl)-8-oxa-3-azabicyclo[3.2.1]octane Hydrochloride Salt]: “++ (++ indicates a stability >1x)”, “++ (++ indicates an IC100 <10 μM)” and < 10 µM.
The matching figures for `COc1c(F)cc2c3ccnc(C(F)(F)F)c3n(CCN3CCOCC3)c2c1F.Cl` [Example 14, 4-(2-(6,8-Difluoro-7-methoxy-1-(trifluoromethyl)-9H-pyrido[3,4-b]indol-9-yl)ethyl)morpholine Hydrochloride Salt]: “+ (+ indicates a stability of <1x)”, “++ (++ indicates an IC100 <10 μM)” and < 10 µM.
Take `COc1cc2c(cc1F)c1ccnc(C(F)(F)F)c1n2CCn1cncn1.Cl` [Example 13, 9-(2-(1H-1,2,4-Triazol-1-yl)ethyl)-6-fluoro-7-methoxy-1-(trifluoromethyl)-9H-pyrido[3,4-b]indole Hydrochloride Salt]: the “Metabolic Stability” value in data set [3] was “++ (++ indicates a stability >1x)”. Besides, the “Sclerostin Inhibition Assay; improvement over sclerostin alone” value in data set [1] is reported as “−”. Besides, the “Sclerostin Inhibition of Mineralization; improvement over sclerostin alone” value in data set [2] is reported as “−”.
As for `COc1cc2c(cc1F)c1ccnc(C(F)(F)F)c1n2CCN1CCC(F)(F)CC1.Cl` [Example 12, 9-(2-(4,4-Difluoropiperidin-1-yl)ethyl)-6-fluoro-7-methoxy-1-(trifluoromethyl)-9H-pyrido[3,4-b]indole Hydrochloride Salt], the “Metabolic Stability” value in data set [3] was “++ (++ indicates a stability >1x)”. Moreover, the “Sclerostin Inhibition Assay; improvement over sclerostin alone” value in data set [1] is “−”. The “Sclerostin Inhibition of Mineralization; improvement over sclerostin alone” value in data set [2] is “−”.
For the compound `COc1cc2c(cc1F)c1ccnc(C(F)(F)F)c1n2CCN1CC2COCC2C1.Cl` (stereo not shown) [Example 11, 5-(2-(6-Fluoro-7-methoxy-1-(trifluoromethyl)-9H-pyrido[3,4-b]indol-9-yl)ethyl)hexahydro-1H-furo[3,4-c]pyrrole Hydrochloride Salt], the “Metabolic Stability” value in data set [3] is reported as “++ (++ indicates a stability >1x)”. Also, the “Sclerostin Inhibition Assay; improvement over sclerostin alone” value in data set [1] is listed as “++ (++ indicates an IC100 <10 μM)”. Also, in data set [2], the IC100 was < 10 µM.
In the same order, the values of `COc1cc2c(cc1F)c1ccnc(C(F)(F)F)c1n2CCN1CCC(OC)C1.Cl` (stereo not shown) [Example 10, 6-Fluoro-7-methoxy-9-(2-(3-methoxypyrrolidin-1-yl)ethyl)-1-(trifluoromethyl)-9H-pyrido[3,4-b]indole Hydrochloride Salt] are “++ (++ indicates a stability >1x)”, “++ (++ indicates an IC100 <10 μM)” and < 10 µM.
In the case of `COc1cc2c(cc1F)c1ccnc(C(F)(F)F)c1n2CCN1CC(OC(F)F)C1.Cl` [Example 5, 9-(2-(3-(Difluoromethoxy)azetidin-1-yl)ethyl)-6-fluoro-7-methoxy-1-(trifluoromethyl)-9H-pyrido[3,4-b]indole Hydrochloride Salt], in data set [3], the “Metabolic Stability” value is “++ (++ indicates a stability >1x)”. Further, in data set [1], the “Sclerostin Inhibition Assay; improvement over sclerostin alone” value is given as “++ (++ indicates an IC100 <10 μM)”. Further, in data set [2], the IC100 was < 10 µM.
The matching figures for `COc1cc2c(cc1F)c1ccnc(C(F)(F)F)c1n2CCN1CCOCC1.Cl` [Example 2, 4-(2-(6-fluoro-7-methoxy-1-(trifluoromethyl)-9H-pyrido[3,4-b]indol-9-yl)ethyl)morpholine Hydrochloride Salt]: “++ (++ indicates a stability >1x)”, “++ (++ indicates an IC100 <10 μM)” and < 10 µM.
In the same order, the values of `COc1cc2c(cc1F)c1ccnc(C(F)(F)F)c1n2CCN1C2CCC1COC2.Cl` [Example 7, 8-(2-(6-Fluoro-7-methoxy-1-(trifluoromethyl)-9H-pyrido[3,4-b]indol-9-yl)ethyl)-3-oxa-8-azabicyclo[3.2.1]octane Hydrochloride Salt] are “+ (+ indicates a stability of <1x)”, “++ (++ indicates an IC100 <10 μM)” and < 10 µM.
With `COc1ccc2c3ccnc(C(F)(F)F)c3n(CCN3CCOCC3)c2c1F.Cl` [Example 1, 4-(2-(8-Fluoro-7-methoxy-1-(trifluoromethyl)-9H-pyrido[3,4-b]indol-9-yl)ethyl)morpholine Hydrochloride Salt], in data set [3], the “Metabolic Stability” value is “++ (++ indicates a stability >1x)”. The “Sclerostin Inhibition Assay; improvement over sclerostin alone” value in data set [1] is “+ (+ indicates an IC100 >10 μM)”. In addition, the IC100 in data set [2] was > 10 µM.
The matching figures for `COc1cc2c(cc1F)c1ccnc(C(F)(F)F)c1n2CCN1CCC(OC)CC1.Cl` [Example 3, 6-Fluoro-7-methoxy-9-(2-(4-methoxypiperidin-1-yl)ethyl)-1-(trifluoromethyl)-9H-pyrido[3,4-b]indole Hydrochloride Salt]: “++ (++ indicates a stability >1x)”, “++ (++ indicates an IC100 <10 μM)” and < 10 µM.
The matching figures for `COc1cc2c(cc1F)c1ccnc(C(F)(F)F)c1n2CCN1CC2CC1CO2.Cl` (stereo not shown) [Example 8, 5-(2-(6-Fluoro-7-methoxy-1-(trifluoromethyl)-9H-pyrido[3,4-b]indol-9-yl)ethyl)-2-oxa-5-azabicyclo[2.2.1]heptane Hydrochloride Salt]: “+ (+ indicates a stability of <1x)”, “++ (++ indicates an IC100 <10 μM)” and < 10 µM.
